# Reference: patent publication US7138361B2, “Herbicidal heterocycles” (E. I. du Pont de Nemours and Company, priority 2000, dated 2006)
# Key:
# Format in all cases: in vivo
# [1] = test system: Surinam grass (Brachiaria decumbens); experiment: Test B postemergence; details: 13 to 15 days
# Text: (§1) Seeds selected from barnyardgrass (Echinochloa crus-galli), Surinam grass (Brachiaria decumbens), cocklebur (Xanthium strumarium), corn (Zea mays), crabgrass (Digitaria sanguinalis), giant foxtail (Setaria faberii), lambsquarters (Chenopodium album), morning glory (Ipomoea hederacea), pigweed (Amaranthus retroflexus), rice (Oryza saliva) and velvetleaf (Abutilon theophrasti) were planted and treated preemergence with test chemicals formulated in a non-phytotoxic solvent mixture which included a surfactant.
# (§2) At the same time, plants selected from these crop and weed species and also blackgrass (Alopecurus myosuroides), wheat (Triticum aestivum) and wild oat (Avena fatua) were treated with postemergence applications of test chemicals formulated in the same manner. Plants ranged in height from 2 to 18 cm (1- to 4-leaf stage) for postemergence treatments. Plant species in the flooded paddy test consisted of rice (Oryza saliva), smallflower flatsedge (Cyperus difformis), duck salad (Heteranthera limosa) and barnyardgrass (Echinochloa crus-galli) grown to the 2-leaf stage for testing. Treated plants and controls were maintained in a greenhouse for 13 to 15 days, after which time all species were compared to controls and visually evaluated. Plant response ratings, summarized in Table B, are based on a scale of 0 to 100 where 0 is no effect and 100 is complete control. A dash (-) response means no test result.
# [2] = test system: barnyardgrass (Echinochloa crus-galli); experiment: Test B postemergence; details: 13 to 15 days
# Text: as §1, §2
# [3] = test system: blackgrass (Alopecurus myosuroides); experiment: Test B postemergence; details: 13 to 15 days
# Text: as §1, §2
# corn (Zea mays) [4] = experiment: Test B postemergence; details: 13 to 15 days
# Text: as §1, §2
# [5] = test system: crabgrass (Digitaria sanguinalis); experiment: Test B postemergence; details: 13 to 15 days
# Text: as §1, §2
# [6] = test system: giant foxtail (Setaria faberii); experiment: Test B postemergence; details: 13 to 15 days
# Text: as §1, §2
# [7] = test system: lambsquarters (Chenopodium album); experiment: Test B postemergence; details: Rate 500 g/ha, scale 0 to 100, 0 is no effect, 100 is complete control, 13 to 15 days
# Text: as §1, §2
# [8] = test system: morning glory (Ipomoea hederacea); experiment: Test B postemergence; details: Rate 500 g/ha, scale 0 to 100, 0 is no effect, 100 is complete control, 13 to 15 days
# Text: as §1, §2
# [9] = test system: pigweed (Amaranthus retroflexus); experiment: Test B postemergence; details: Rate 500 g/ha, scale 0 to 100, 0 is no effect, 100 is complete control, 13 to 15 days
# Text: as §1, §2
# [10] = test system: velvetleaf (Abutilon theophrasti); experiment: Test B postemergence; details: Rate 500 g/ha, scale 0 to 100, 0 is no effect, 100 is complete control, 13 to 15 days
# Text: as §1, §2
# [11] = test system: wheat (Triticum aestivum); experiment: Test B postemergence; details: Rate 500 g/ha, scale 0 to 100, 0 is no effect, 100 is complete control, 13 to 15 days
# Text: as §1, §2
# wild oat (Avena fatua) = experiment: Test B postemergence; details: Rate 500 g/ha, scale 0 to 100, 0 is no effect, 100 is complete control, 13 to 15 days
# Text: as §1, §2
# [12] = test system: Surinam grass (Brachiaria decumbens); experiment: Test B preemergence
# Text: as §1, §2
# [13] = test system: barnyardgrass (Echinochloa crus-galli); experiment: Test B preemergence
# Text: as §1, §2
# [14] = test system: cocklebur (Xanthium strumarium); experiment: Test B preemergence
# Text: as §1, §2
# corn (Zea mays) [15] = experiment: Test B preemergence
# Text: as §1, §2
# [16] = test system: crabgrass (Digitaria sanguinalis); experiment: Test B preemergence
# Text: as §1, §2
# [17] = test system: giant foxtail (Setaria faberii); experiment: Test B preemergence
# Text: as §1, §2
# [18] = test system: lambsquarters (Chenopodium album); experiment: Test B preemergence
# Text: as §1, §2
# [19] = test system: morning glory (Ipomoea hederacea); experiment: Test B preemergence
# Text: as §1, §2
# [20] = test system: pigweed (Amaranthus retroflexus); experiment: Test B preemergence
# Text: as §1, §2
# rice (Oryza saliva) [21] = experiment: Test B preemergence
# Text: as §1, §2
# [22] = test system: velvetleaf (Abutilon theophrasti); experiment: Test B preemergence
# Text: as §1, §2
# [23] = test system: barnyardgrass (Echinochloa crus-galli); experiment: Test C flooded paddy test; details: for Barnyardgrass plant response rating: Flooded Paddy, scale 0 to 100, 0 no effect, 100 complete control; for Plant response rating, Barnyardgrass: flooded paddy test, scale 0 to 100 (0 no effect, 100 complete control)
# Procedure: (§3) At the same time, plants selected from these crop and weed species and also winter barley (Hordeum vulgare), blackgrass (Alopecurus myosuroides), canary grass (Phalaris minor), chickweed (Stellaria media), downy brome (Bromus tectorum), green foxtail (Setaria viridis), Italian ryegrass (Lolium multiflorum), wheat (Triticum aestivum), wild oat (Avena fatua) and windgrass (Apera spica-venti) were treated with postemergence applications of some of the test chemicals formulated in the same manner. Plants ranged in height from 2 to 18 cm (1- to 4-leaf stage) for postemergence treatments. Plant species in the flooded paddy test consisted of rice (Oryza saliva), smallflower flatsedge (Cyperus difformis), duck salad (Heteranthera limosa) and barnyardgrass (Echinochloa crus-galli) grown to the 2-leaf stage for testing. Treated plants and controls were maintained in a greenhouse for 12 to 14 days, after which time all species were compared to controls and visually evaluated. Plant response ratings, summarized in Table C, are based on a scale of 0 to 100 where 0 is no effect and 100 is complete control. A dash (-) response means no test result.
# [24] = test system: duck salad (Heteranthera limosa); experiment: Test C flooded paddy test; details: for Ducksalad plant response rating: Flooded Paddy, scale 0 to 100, 0 no effect, 100 complete control; for Plant response rating, Ducksalad: flooded paddy test, scale 0 to 100 (0 no effect, 100 complete control)
# Procedure: as §3
# rice (Oryza saliva) [25] = experiment: Test C flooded paddy test; details: for Rice plant response rating: Flooded Paddy, scale 0 to 100, 0 no effect, 100 complete control
# Procedure: as §3
# [26] = test system: smallflower flatsedge (Cyperus difformis); experiment: Test C flooded paddy test; details: for Flatsedge plant response rating: Flooded Paddy, scale 0 to 100, 0 no effect, 100 complete control; for Plant response rating, Flatsedge: flooded paddy test, scale 0 to 100 (0 no effect, 100 complete control)
# Procedure: as §3
# [27] = Rate 125 g/ha, scale 0 (no effect) to 100 (complete control)
# [28] = Rate 500 g/ha, scale 0 to 100, 0 is no effect, 100 is complete control
# [29] = Preemergence, Rate 500 g/ha, scale 0 to 100, 0 no effect, 100 complete control
# [30] = preemergence, Rate 125 g/ha, scale of 0 to 100 where 0 is no effect and 100 is complete control, 13 to 15 days
compound,measurement,setting,value
CCCCC(C)c1ccn(C2SCN(c3cccc(C(F)(F)F)c3)C2=O)n1 (stereo not shown) [Compound 103],"Plant response rating, Surinam grass",[1]; [27],0
same,"Plant response rating, Surinam grass",[1]; [28],0
same,"Plant response rating, Barnyardgrass",[2]; [27],0
same,"Plant response rating, Barnyardgrass",[2]; [28],0
same,"Plant response rating, Blackgrass",[3]; [27],0
same,"Plant response rating, Blackgrass",[3]; [28],0
same,"Plant response rating, Corn",corn (Zea mays) [4]; [27],0
same,"Plant response rating, Corn",corn (Zea mays) [4]; [28],0
same,"Plant response rating, Crabgrass",[5]; [27],0
same,"Plant response rating, Crabgrass",[5]; [28],0
same,"Plant response rating, Foxtail, Giant",[6]; [27],0
same,"Plant response rating, Foxtail, Giant",[6]; [28],0
same,"Plant response rating, Lambsquarters",[7],50
same,"Plant response rating, Morningglory",[8],0
same,"Plant response rating, Pigweed",[9],0
same,"Plant response rating, Velvetleaf",[10],0
same,"Plant response rating, Wheat",[11],0
same,"Plant response rating, Wild Oat",wild oat (Avena fatua),0
same,"Plant response rating, Surinam grass",[12]; [29],0
same,"Plant response rating, Surinam grass",[12]; [30],0
same,"Plant response rating, Barnyardgrass",[13]; [29],0
same,"Plant response rating, Barnyardgrass",[13]; [30],0
same,"Plant response rating, Cocklebur",[14]; [29],0
same,"Plant response rating, Cocklebur",[14]; [30],0
same,"Plant response rating, Corn",corn (Zea mays) [15]; [29],0
same,"Plant response rating, Corn",corn (Zea mays) [15]; [30],0
same,"Plant response rating, Crabgrass",[16]; [29],60
same,"Plant response rating, Crabgrass",[16]; [30],0
same,"Plant response rating, Foxtail, Giant",[17]; [29],0
same,"Plant response rating, Foxtail, Giant",[17]; [30],0
same,"Plant response rating, Lambsquarters",[18]; [29],100
same,"Plant response rating, Lambsquarters",[18]; [30],100
same,"Plant response rating, Morningglory",[19]; [29],0
same,"Plant response rating, Morningglory",[19]; [30],0
same,"Plant response rating, Pigweed",[20]; [29],0
same,"Plant response rating, Pigweed",[20]; [30],0
same,"Plant response rating, Rice",rice (Oryza saliva) [21]; [29],0
same,"Plant response rating, Rice",rice (Oryza saliva) [21]; [30],0
same,"Plant response rating, Velvetleaf",[22]; [29],0
same,"Plant response rating, Velvetleaf",[22]; [30],0
same,Barnyardgrass plant response rating,[23]; Rate 250 g/ha,20
same,Barnyardgrass plant response rating,[23]; Rate 500 g/ha,40
same,"Plant response rating, Barnyardgrass",[23]; Rate 62 g/ha,0
same,"Plant response rating, Barnyardgrass",[23]; Rate 125 g/ha,0
same,Ducksalad plant response rating,[24]; Rate 250 g/ha,0
same,Ducksalad plant response rating,[24]; Rate 500 g/ha,90
same,"Plant response rating, Ducksalad",[24]; Rate 62 g/ha,0
same,"Plant response rating, Ducksalad",[24]; Rate 125 g/ha,0
same,Rice plant response rating,rice (Oryza saliva) [25]; Rate 250 g/ha,20
same,Rice plant response rating,rice (Oryza saliva) [25]; Rate 500 g/ha,20
same,"Plant response rating, Rice","rice (Oryza saliva) [25]; flooded paddy test, Rate 62 g/ha, scale 0 to 100 (0 no effect, 100 complete control)",0
same,Flatsedge plant response rating,[26]; Rate 250 g/ha,100
same,Flatsedge plant response rating,[26]; Rate 500 g/ha,100
same,"Plant response rating, Flatsedge",[26]; Rate 62 g/ha,0
same,"Plant response rating, Flatsedge",[26]; Rate 125 g/ha,80
